One assay concerns the target PDE 4. Kind of assay: PDE 4 enzyme inhibition (SPA). The assay is classed as biochemical. The conditions noted are these: PDE 4 purified from human PMNs; cAMP 1 μM. On the procedure: a) Human Polymorphonuclear Leukocyte Isolation
The polymorphonuclear leukocytes (PMNs) were isolated from peripheral blood of healthy volunteers according to Boyum A. (Scand. J. Immunol., 1976, 5th suppl., 9). Briefly, the PMNs were purified by Ficoll-Paque gradient centrifugation followed by sedimentation on dextran and the erythrocyte contamination was eliminated by hypotonic lysis.
b) PDE 4 Enzyme Purification
The human PMNs were suspended in TRIS/HCl buffer (10 mM, pH 7.8) containing MgCl2 (5 mM), EGTA (4 mM), mercaptoethanol (5 mM), TRITON-X100 (1%), pepstatin A (1 μM), PMSF (100 μM) and leupeptin (1 μM), and homogenised by Polytron homogeniser. The homogenate was centrifuged at 25,000×g for 30 minutes at 4° C. and the PDE 4 enzyme was purified by ion exchange chromatography using the FPLC technique according to Schudt C. et al. (Naunyn-Schmidberg's Arch. Pharmacol., 1991, 334, 682). The supernatant was seeded on a UNO Q12 column (Bio-Rad) and the enzyme was eluted by sodium acetate linear gradient from 50 mM to 1M using a flow rate of 4.5 ml/minutes. The fractions containing enzymatic activity were pooled, dialysed against water and concentrated. The PDE 4 enzyme was stored at, −20° C. in the presence of ethylene glycol (30% v/v) until the use.
The enzyme activity was evaluated with a Scintillation Proximity Assay (SPA) kit (Amersham). The enzymatic reaction was performed in a final volume of 100 μl of TRIS/HCl buffer (50 mM, pH 7.5), MgCl2 (8.3 mM), EGTA (1.7 mM), cAMP (1 μM) and [^3H]cAMP (˜100.000 dpm) as tracer. The compounds of the invention, the reference ones or the vehicle were added at different concentrations. As reference compounds 6,7-dimethoxy-4-pyridin-4-yl-methyl)2H-phthalazin-1-one (reference 1) and 6,7-dimethoxy-4-(piperidin-4-yl-methyl)2H-phthalazin-1-one (reference 2) embraced by the general formula of the patent application EP-0 722 936 (in the name of Eisai) were used. The reaction was started by adding 1.5 μg protein and incubated for 40 minutes at 30° C. SPA beads (50 μl) containing 18 mM zinc sulphate were added to stop the reaction and after 20 minutes at room temperature the radioactivity was measured using a scintillation counter.
The IC50 value refers to the nanomolar concentration of the compound required to inhibit cyclic nucleotide hydrolysis by 50%, and it was calculated by non-linear regression analysis.

A further assay addresses T1, PDE 3 (Homo sapiens, UniProt Q14432).
T1 construct: The fractions containing the enzymatic activities (PDE 3 or PDE 5) were pooled; from tissue; host or cells: human platelets from platelet rich plasma of healthy volunteers
Kind of assay: PDE 3 enzyme inhibition (SPA). The assay is classed as biochemical. The conditions noted are these: 10^−6 M; PDE 3 from human platelets; cAMP. Here is the method: (§1) a) Human Platelet Preparation
(§2) Human platelets were prepared from platelet rich plasma (PRP) obtained from healthy volunteers. The PRP was centrifuiged at 2,200 rpm for 15 minutes at 4° C. and the pellet was suspended in lysis solution (15 ml; 155 mM NH4Cl, 10 mM KHCO3 and 0.1 mM Na2EDTA, pH=7.4) and incubated for 10 minutes on ice-bath to remove the erythrocyte contamination. After centrifugation at 1,400 rpm for 10 minutes at 4° C., platelets were suspended in 10 ml of […], 5 mM KCl, 1 mM MgSO4, 10 mM glucose, 10 mM HEPES (pH 7.4) and 0.05 U/ml of hirudin, and stored at −20° C. until homogenisation. Platelets were thawed and 50 ml of 20 mM TRIS (pH=6.5) containing 5 mM β-mercapto-ethanol, 2 mM EDTA, 50 mM sodium acetate and 50 μM PMSF (homogenisation buffer) were added. The platelet suspension was then homogenised by a Polytron homogeniser (Polytron PT 1200) for 20 seconds. The homogenate was centrifuged at 14,500 rpm for 20 minutes at 4° C., and the supernatant was applied to an UNO Q12 column (Bio-Rad). The PDE 3 and PDE 5 were eluted by sodium acetate linear gradient from 0.05M to 1M using a flow rate of 4.5 ml/minutes. The fractions containing the enzymatic activities (PDE 3 or PDE 5) were pooled, dialysed against water and concentrated 10 times by ultrafiltration. The PDE 3 and PDE 5 fractions were stored at −20° C. in the presence of ethylene glycol (30% v/v) until use.
(§3) b) PDE 3 and PDE 5 Activity Assay
(§4) The enzyme activity was evaluated with a Scintillation Proximity Assay (SPA) kit (Amersham). The enzymatic reaction was performed in a final volume of 100 μl of TRIS/HCl buffer (50 mM, pH7.5), MgCl2 (8.3 mM), EGTA (1.7 mM), cAMP (for PDE 3 assay) or cGMP (for PDE 5 assay) (1 μM), [^3H]cAMP or [^3H]cGMP (10 μl ), and 10 μl of the compounds of the invention or vehicle. The reaction was started by adding the enzyme (1.0 μg) and incubated for 40 minutes at 30° C. SPA beads (50 μl) containing 18 mM zinc sulphate were added to stop the reaction and after 20 minutes at room temperature the radioacticity was measured using a scintillation counter.
(§5) The compounds were tested at 10^−6M and the results are expressed as percent of inhibition.

A further assay addresses T2, PDE 5 (Homo sapiens, UniProt O76074).
T2 construct: The fractions containing the enzymatic activities (PDE 3 or PDE 5) were pooled; from tissue; host or cells: human platelets from platelet rich plasma of healthy volunteers
Kind of assay: PDE 5 enzyme inhibition (SPA). The assay is classed as biochemical. As to conditions: 10^−6 M; PDE 5 from human platelets; cGMP. Here is the method: as §1, §2, §3, §4, §5

For assay [1], the system named is TNFα release from human monocytes. In words: TNFα release inhibition in LPS-stimulated monocytes. The assay is classed as cell-based. The conditions noted are these: Monocyte, LPS 1 ng/ml, 16 hours, ELISA. Here is the method: a) Human Monocyte Isolation
The monocytes were isolated from peripheral blood of healthy volunteers according to the procedure of Schreek L. et al. (J. Natl. Cancer Inst., 1964, 32, 507). The monocyte and lymphocyte population was isolated by Ficoll gradient centrifugation, and the cells diluted at a density of 2.5×10^6 cells/ml in RPMI1640 incubation medium containing 1% heat-inactivated foetal calf serum, penicillin (100 U/ml) and streptomycin (100 μg/ml) were plated in 24-wells plates (1 ml/well) and left to adhere for 1 hour at 37° C. with 5% CO2. Non-adherent lymphocytes were removed by aspiration and the monocytes adhered to the plate were used in the next step.
The TNFα release from human monocytes was measured according to the method of Barnette M. et al. (Biochemical Pharmacology, 1996, 51, 949). The monocytes were incubated for 1 hour with 1 ml of RPMI1640 incubation medium (1% beat-inactivated foetal calf serum, 100 U/ml penicillin and 100 μg/ml streptomyc in) containing different concentrations of the products according to the present invention or the vehicle for the controls. The TNFα release from monocytes was induced by adding 1 ng/ml of LPS (lipopolysaccharide from E. Coli) and after 16 hours of incubation at 37° C., 5% CO2, the incubation medium was removed, centrifuged and the supernatant stored at −80° C. until TNFα assay by ELISA kit (Amersham). The results are expressed as IC50 following the same calculation explained in example 147.

Each structure is given as a SMILES string.

T1 sequence (Q14432 whole entry): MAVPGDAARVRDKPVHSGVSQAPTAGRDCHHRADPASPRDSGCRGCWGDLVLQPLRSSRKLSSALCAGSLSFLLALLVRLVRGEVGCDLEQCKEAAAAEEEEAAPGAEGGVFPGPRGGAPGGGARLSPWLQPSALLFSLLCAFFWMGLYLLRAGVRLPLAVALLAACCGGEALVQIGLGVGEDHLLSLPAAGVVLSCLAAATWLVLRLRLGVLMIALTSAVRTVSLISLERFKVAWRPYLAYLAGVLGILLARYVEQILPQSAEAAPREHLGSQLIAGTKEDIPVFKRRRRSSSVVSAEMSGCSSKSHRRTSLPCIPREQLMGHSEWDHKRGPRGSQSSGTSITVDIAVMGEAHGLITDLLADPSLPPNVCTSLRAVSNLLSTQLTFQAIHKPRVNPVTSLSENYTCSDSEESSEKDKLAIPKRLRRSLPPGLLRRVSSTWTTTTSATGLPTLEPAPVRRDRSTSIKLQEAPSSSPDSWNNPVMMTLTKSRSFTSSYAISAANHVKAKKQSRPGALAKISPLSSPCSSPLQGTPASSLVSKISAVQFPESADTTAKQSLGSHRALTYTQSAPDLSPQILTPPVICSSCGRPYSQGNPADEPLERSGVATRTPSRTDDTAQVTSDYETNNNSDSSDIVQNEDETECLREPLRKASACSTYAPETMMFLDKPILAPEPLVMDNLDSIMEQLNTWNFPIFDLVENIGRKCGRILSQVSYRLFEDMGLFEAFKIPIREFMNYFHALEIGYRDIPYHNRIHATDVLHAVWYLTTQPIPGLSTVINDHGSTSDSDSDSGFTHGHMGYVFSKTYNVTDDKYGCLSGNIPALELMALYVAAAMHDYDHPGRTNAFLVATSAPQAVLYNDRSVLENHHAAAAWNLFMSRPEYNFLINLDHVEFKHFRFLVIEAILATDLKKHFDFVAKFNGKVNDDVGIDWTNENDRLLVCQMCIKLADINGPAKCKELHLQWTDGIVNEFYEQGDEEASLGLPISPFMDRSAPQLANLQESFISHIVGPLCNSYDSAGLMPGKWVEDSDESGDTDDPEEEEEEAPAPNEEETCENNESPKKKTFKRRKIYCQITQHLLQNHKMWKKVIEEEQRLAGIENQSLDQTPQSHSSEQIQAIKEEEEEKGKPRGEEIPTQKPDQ

In the case of `COc1ccc2c(c1)CN(S(C)(=O)=O)N=C2Cc1c(Cl)cncc1Cl` [Compound 15, 4-(3,5-Dichloro-pyridin-4-ylmethyl)-2-methanesulfonyl-7-methoxy-1,2-dihydro-phthalazine], the IC50 (in general, the concentration that inhibits the measured activity by half) at PDE 4 was 0.021 ± 0.004 µM. Besides, the inhibition (in general, the drop in the measured response relative to a control, in per cent) at 1 µM on PDE 3 is 15%; on PDE 5, 0%.
With `COc1ccc2c(Cc3c(Cl)cncc3Cl)nn(CCCCCc3ccccc3)c(=O)c2c1` [Compound 23, 4-(3,5-Dichloro-pyridin-4-ylmethyl)-7-methoxy-2-(5-phenyl-pentyl)-2H-phthalazin-1-one], on PDE 4, the midpoint of inhibition, the IC50, lay at 0.209 ± 0.026 µM. The results for the inhibition at 1 µM against PDE 3 and against PDE 5 were 19% and 21%, respectively.
Taken in the same sequence, the figures for `CNC(=O)N1Cc2cc(OC)ccc2C(Cc2c(Cl)cncc2Cl)=N1` [Compound 17, 4-(3,5-Dichloro-pyridin-4-ylmethyl)-7-methoxy-1H-phthalazine-2-carboxylic acid methyl-amide] were 0.131 ± 0.024 µM, 12% and 21%.
`COc1ccc2c(Cc3c(Cl)cncc3Cl)nnc(N3CCCC3)c2c1` [Compound 49, 1-(3,5-Dichloropyridin-4-ylmethyl)-6-methoxy-4-pyrrolidin-1-yl-phthalazine]: the IC50 in assay [1] was found to be 0.0091 ± 0.0029 µM. Besides, the inhibition at 1 µM was -10% against PDE 3 and 10% on PDE 5.
`COc1ccc2c(Cc3c(Cl)cncc3Cl)nnc(C#Cc3ccccc3)c2c1` [Compound 27, 1-(3,5-Dichloro-pyridin-4-ylmethyl)-6-methoxy-4-phenylethynyl-phthalazine] displayed a half-maximal inhibitory concentration (IC50) against PDE 4 of 0.048 ± 0.012 µM. Also, the inhibition at 1 µM on PDE 3 came to 15%; at PDE 5 it was 9%.
Consider `COc1ccc2c(Cc3c(Cl)cncc3Cl)nnc(-n3cncn3)c2c1` [Compound 29, 1-(3,5-Dichloro-pyridin-4-ylmethyl)-6-methoxy-4-[1,2,4]triazol-1-yl-phthalazine], for which the figures for the IC50 (on PDE 4; in assay [1]) were 0.241 ± 0.073 µM and 0.073 ± 0.021 µM, respectively. Further, the values for the inhibition at 1 µM at PDE 3 and on PDE 5 were -4% and 1%, respectively.
`COc1ccc2c(Cc3c(Cl)cncc3Cl)nnc(-c3nccs3)c2c1` [Compound 26, 1-(3,5-Dichloro-pyridin-4-ylmethyl)-6-methoxy-4-thiazol-2-yl-phthalazine] registered an IC50 on PDE 4 of 0.014 ± 0.002 µM. The inhibition at 1 µM on PDE 5 is 0%.
In the case of `COc1ccc2c(Cc3c(Cl)cncc3Cl)nnc(N3CCOCC3)c2c1` [Compound 38, 1(3,5-Dichloro-pyridin-4-ylmethyl)-6-methoxy-4-morpholin-4-yl-phthalazine], the IC50 at PDE 4 turned out to be 0.132 ± 0.03 µM; in assay [1] it was 0.062 ± 0.017 µM. The inhibition at 1 µM against PDE 3 is -2%; at PDE 5 it was 1%.
On to `COc1ccc2c(Cc3c(Cl)cncc3Cl)nn(CCc3ccccc3)c(=O)c2c1` [Compound 22, 4-(3,5-Dichloro-pyridin-4-ylmethyl)-7-methoxy-2-phenethyl-2H-phthalazin-1-one], for which the IC50 against PDE 4 is 0.225 ± 0.035 µM. Also, the results for the inhibition at 1 µM against PDE 3 and at PDE 5 were 20% and 8%, respectively.
Turning to `COc1ccc2c(c1)CN(C(C)=O)N=C2Cc1c(Cl)cncc1Cl` [Compound 8, 1-[4-(3,5-Dichloro-pyridin-4-ylmethyl)-7-methoxy-1H-phthalazin-2-yl]-ethanone], the 50% inhibitory concentration (IC50) on PDE 4 was found to be 0.051 ± 0.007 µM; in assay [1], 0.048 ± 0.014 µM. The inhibition at 1 µM against PDE 3 came out at 12%; on PDE 5, 35%.
At PDE 4, `COc1ccc2c(c1)CN(C(=O)C(C)C)N=C2Cc1c(Cl)cncc1Cl` [Compound 11, 1-[4-(3,5-Dichloro-pyridin-4-ylmethyl)-7-methoxy-1H-phthalazin-2-yl]-2-methyl-propan-1-one] displayed an IC50 of 0.026 ± 0.003 µM. The inhibition at 1 µM at PDE 3 was determined as 17%; against PDE 5, 10%.
In the case of `COc1ccc2c(Cc3c(Cl)cncc3Cl)nnc(CN3CCOCC3)c2c1` [Compound 56, 1-(3,5-Dichloro-pyridin-4-ylmethyl)-6-methoxy-4-morpholin-4-ylmethyl-phthalazine], the IC50 on PDE 4 came to 0.364 ± 0.067 µM; in assay [1], 0.26 ± 0.044 µM. Also, the inhibition at 1 µM on PDE 3 was -9%; against PDE 5 it was 14%.
Take `FC(F)Oc1ccc2c(Cc3c(Cl)cncc3Cl)nnc(-n3cncn3)c2c1` [Compound 54, 1-(3,5-Dichloro-pyridin-4-ylmethyl)-6-difluoromethoxy-4-[1,2,4]triazol-1-yl-phthalazine]: the figures for the inhibition at 1 µM against PDE 3 and against PDE 5 were 2% and 33%, respectively.
Compound `CCn1nc(Cc2c(Cl)cncc2Cl)c2ccc(OC)cc2c1=O` [Compound 20, 4-(3,5-Dichloro-pyridin-4-ylmethyl)-2-ethyl-7-methoxy-2H-phthalazin-1-one] displayed a 50% inhibitory concentration (IC50) against PDE 4 of 0.158 ± 0.034 µM. Also, the inhibition at 1 µM was determined as 5% at PDE 3 and 11% against PDE 5.
Regarding `COc1ccc2c(Cc3c(Cl)cncc3Cl)nnc(-c3ccccc3)c2c1` [Compound 5, 1-(3,5-Dichloro-pyridin-4-ylmethyl)-6-methoxy-4-phenyl-phthalazine], the IC50 against PDE 4 was determined as 0.037 ± 0.006 µM; in assay [1] it was 0.046 ± 0.015 µM. The figures for the inhibition at 1 µM against PDE 3 and at PDE 5 were 7% and 21%, respectively.
`C#Cc1nnc(Cc2c(Cl)cncc2Cl)c2ccc(OC)cc12` [Compound 60, 1-(3,5-Dichloro-pyridin-4-ylmethyl)-4-ethynyl-6-methoxy-phthalazine] yielded a half-inhibitory concentration (IC50) on PDE 4 of 0.093 ± 0.029 µM. The results for the inhibition at 1 µM at PDE 3 and against PDE 5 were -2% and 1%, respectively.

For the origin of these results see patent US6492360B1, “Phthalazine derivatives phosphodiesterase 4 inhibitors” (Zambon Group S.p.A., priority 1998, dated 2002).
